target: T1, CXCR4 receptors (Homo sapiens, UniProt P61073); test: CXCR4-CEM calcium flux assay, antagonist mode (inhibition of SDF-1α-induced calcium flux); assay type: cell-based; conditions: inhibition of calcium flux induced by 4 nM SDF-1α in CCRF-CEM cells
T1 construct: expressing endogenous CXCR4 receptors; endogenous in cells; host or cells: CCRF-CEM (human T lymphoblast cells)
Procedure: Exemplary compounds of the invention were tested for their ability to induce or inhibit calcium flux in CCRF-CEM cells. […] CXCR4-CEM Calcium Flux Assays. […] The cells were then equilibrated to room temperature for 30 minutes before assay. […] The serially diluted compounds were diluted to working concentrations with the same assay buffer to 0.5% DMSO. […] Activity of the compounds to induce calcium flux was monitored by FDSS in the “agonist mode” for 90 sec. For “antagonist mode” assessment, the cells are subsequently incubated for 25 min at room temperature. SDF-1α (R&D System Cat#350-NS/CF) was then added at a final concentration of 4 nM to stimulate the cells. Inhibition of SDF-1α-induced calcium flux was monitored by FDSS6000 for 90 sec. […] After correcting for background, EC50 values were determined. […] Inhibition data for the test compound over a range of concentrations was plotted as percentage inhibition of the test compound as compared to an internal control compound.

T1 sequence (P61073 whole entry): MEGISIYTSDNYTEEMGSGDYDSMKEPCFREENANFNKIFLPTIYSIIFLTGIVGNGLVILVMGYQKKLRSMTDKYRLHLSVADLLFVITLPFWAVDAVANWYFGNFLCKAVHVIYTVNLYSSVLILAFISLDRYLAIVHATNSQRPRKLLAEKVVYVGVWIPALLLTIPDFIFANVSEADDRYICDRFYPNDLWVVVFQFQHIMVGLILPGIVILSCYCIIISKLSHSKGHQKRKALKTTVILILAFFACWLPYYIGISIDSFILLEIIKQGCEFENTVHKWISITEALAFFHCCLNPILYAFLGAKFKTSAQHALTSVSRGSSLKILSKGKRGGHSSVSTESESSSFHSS

`CN(Cc1cn2c(N3CCN(Cc4ccc(O)cc4)CC3)nccc2n1)[C@H]1CCCc2cccnc21` [Example 24, 4-({4-[2-({methyl[(S)-5,6,7,8-tetrahydroquinolin-8-yl]amino}methyl)imidazo[1,2-c]pyrimidin-5-yl]piperazin-1-yl}methyl)phenol] and `CN(Cc1cn2c(N3CCN(Cc4cccc(Cl)c4)CC3)nccc2n1)[C@H]1CCCc2cccnc21` [Example 25, (S)-N-[(5-{4-[(3-chlorophenyl)methyl]piperazin-1-yl}imidazo[1,2-c]pyrimidin-2-yl)methyl]-N-methyl-5,6,7,8-tetrahydroquinolin-8-amine] are within 1.5-fold of each other in IC50: 11 nM for the first, 12 nM for the second.

`CN(Cc1cn2c(N3CCN(Cc4cccs4)CC3)nccc2n1)[C@H]1CCCc2cccnc21` [Example 26, (S)-N-methyl-N-({5-[4-(thiophen-2-ylmethyl)piperazin-1-yl]imidazo[1,2-c]pyrimidin-2-yl}methyl)-5,6,7,8-tetrahydroquinolin-8-amine] and `CN(Cc1cn2c(N3CCN(Cc4cccnc4)CC3)nccc2n1)[C@H]1CCCc2cccnc21` [Example 28] are within 1.5-fold of each other in IC50: 14 nM for the first, 11 nM for the second.

Going from `CN(Cc1cn2c(N3CCN(Cc4cncn4C)CC3)nccc2n1)[C@H]1CCCc2cccnc21` [Example 27, (S)-N-methyl-N-[(5-{4-[(1-methyl-1H-imidazol-5-yl)methyl]piperazin-1-yl}imidazo[1,2-c]pyrimidin-2-yl)methyl]-5,6,7,8-tetrahydroquinolin-8-amine] to `CCN1CCN(c2nccc3nc(CN(C)[C@H]4CCCc5cccnc54)cn23)CC1` [Example 35, (S)-N-{[5-(4-ethylpiperazin-1-yl)imidazo[1,2-c]pyrimidin-2-yl]methyl}-N-methyl-5,6,7,8-tetrahydroquinolin-8-amine], the IC50 rises from 75 nM to 510 nM (6.8-fold).

Compared with `CN(Cc1cn2c(N3CCN(Cc4ccncc4)CC3)nccc2n1)[C@H]1CCCc2cccnc21` [Example 29, (S)-N-methyl-N-({5-[4-(pyridin-4-ylmethyl)piperazin-1-yl]imidazo[1,2-c]pyrimidin-2-yl}methyl)-5,6,7,8-tetrahydroquinolin-8-amine], `CN(Cc1cn2c(N3CCN(CCCc4ccccc4)CC3)nccc2n1)[C@H]1CCCc2cccnc21` [Example 34, (S)-N-methyl-N-({5-[4-(3-phenylpropyl)piperazin-1-yl]imidazo[1,2-c]pyrimidin-2-yl}methyl)-5,6,7,8-tetrahydroquinolin-8-amine] is 1.6-fold higher in IC50: 77 nM for the first, 120 nM for the second. The first is the more potent here.

`CN(Cc1cn2c(N3CCN(C4CCC4)CC3)nccc2n1)[C@H]1CCCc2cccnc21` [Example 30, (S)-N-{[5-(4-cyclobutylpiperazin-1-yl)imidazo[1,2-c]pyrimidin-2-yl]methyl}-N-methyl-5,6,7,8-tetrahydroquinolin-8-amine] and `CN(Cc1cn2c(N3CCN(CC4CCCC4)CC3)nccc2n1)[C@H]1CCCc2cccnc21` [Example 31, (S)-N-({5-[4-(cyclopentylmethyl)piperazin-1-yl]imidazo[1,2-c]pyrimidin-2-yl}methyl)-N-methyl-5,6,7,8-tetrahydroquinolin-8-amine] are within 1.5-fold of each other in IC50: 190 nM for the first, 170 nM for the second.

First: CN(Cc1cn2c(N3CCN(CC4CCOC4)CC3)nccc2n1)[C@H]1CCCc2cccnc21 (stereo partly drawn) [Example 32, (S)-N-methyl-N-({5-[4-(oxolan-3-ylmethyl)piperazin-1-yl]imidazo[1,2-c]pyrimidin-2-yl}methyl)-5,6,7,8-tetrahydroquinolin-8-amine]
Second: CN(Cc1cn2c(N3CCN(CC(C)(C)C)CC3)nccc2n1)[C@H]1CCCc2cccnc21 [Example 33, (S)-N-({5-[4-(2,2-dimethylpropyl)piperazin-1-yl]imidazo[1,2-c]pyrimidin-2-yl}methyl)-N-methyl-5,6,7,8-tetrahydroquinolin-8-amine]
The IC50 of the first is 3.2-fold lower: 310 nM for the first, 1000 nM for the second.

With `CN(Cc1cn2c(N3CCN(CCC(F)(F)F)CC3)nccc2n1)[C@H]1CCCc2cccnc21` [Example 36, (S)-N-methyl-N-({5-[4-(3,3,3-trifluoropropyl)piperazin-1-yl]imidazo[1,2-c]pyrimidin-2-yl}methyl)-5,6,7,8-tetrahydroquinolin-8-amine] the IC50 was 30700 nM.
